In patent US20090004683A1, “Indicator Agent for Noninflammatory Stress Response and Use Thereof” (priority 2004, published 2009):
Blank lines part the entries; values can stand above or below the compound they belong to.

Tests used:
[1] = system: IL-18; test: Plasma IL-18 level in restraint stress mice (ELISA); format: in vivo, mouse; conditions: given i.p. during restraint (Ac-YVAD-CHO 200 μM/50 μl, Z-FA-fmk 100 μM/50 μl, SB-203580 100 μg, SOD-1 20 U, DPI 30 μg)
Procedure: (§1) For restraint stress, each mouse was kept in a restrainer (a round plastic tube 27 mm in diameter) for 1, 3 or 6 hours, and IL-18 levels were measured. Regarding the analysis of IL-6, each mouse was restrained as described above, and then housed in the starting cage for 6 hours, after which a measurement was performed.
(§2) After restraint, each mouse was anesthetized with diethyl ether, and blood was drawn into an EDTA-containing tube. Plasma was separated by centrifugation at 4° C. and 10000×g for 10 minutes, and stored at −80° C. IL-18 and IL-6 were analyzed by ELISA using Quantikine™ immunoassay kit (R&D Systems) and OptEIA™ (BD-Pharmingen), respectively.
(§3) The anti-ACTH antiserum (50 μl, 1:1), dexamethasone (1 ng/50 μl PBS(−)) or the anti-IL-18 antibody (50 μl, 1:1) was administered intraperitoneally to each mouse; after 10 minutes elapsed, the animal was kept in a restraint tube for 6 hours. Synthetic ACTH (250 μg/50 μl PBS(−)) was injected to the left leg; after 6 hours elapsed, the mice were subjected to the experiment.
(§4) Each mouse was kept in a restrainer for 1 hour, and Ac-YVAD-CHO (200 μM/50 μl PBS(−)), Z-FA-fmk (100 μM/50 μl PBS(−)) and SB-203580 (100 μg/50 μl PBS(−) per mouse) were administered intraperitoneally. 1 and 3 hours after the start of restraint, SOD-1 (20 U) and DPI (30 μg) were administered intraperitoneally to the mouse, and samples were analyzed by Western blotting.

[2] = system: procaspase-11; test: Procaspase-11 protein in the adrenal of restraint stress mice (Western blotting); format: in vivo, mouse; conditions: given i.p. during restraint
Procedure: as §4
(§5) Western blot analysis of IL-18 and phosphorylated P38MAP kinase in adrenal tissue was performed as described below. The adrenal tissue was homogenized in an immunoprecipitation (IP) buffer solution (50 mM Tris pH 7.4, 150 mM NaCl, 0.5% NP-40 and 0.5% sodium deoxycholate) containing a protease inhibitor mixture (manufactured by Roche Diagnostics) using a Polytron homogenizer. […] The aforementioned membrane was incubated with an antibody (IL-18, phosphorylated (Thr180/Tyr182) P38 MAP kinase, caspase-1 or caspase-11), and the reacted protein was detected using an ECL plus system (manufactured by Amersham biosciences). Procaspase-11 and activated P38 MAP kinase were quantified using a Science Lab 99 image analysis system (manufactured by Fujifilm).

[3] = target: T1, caspase-1 (Mus musculus, UniProt P29452); test: Caspase-1 activity in the adrenal of restraint stress mice (Ac-YVAD-MCA fluorescent substrate); format: in vivo; conditions: given i.p. during restraint
T1 construct: from tissue; host or cells: mouse adrenal (homogenate)
T1 sequence (P29452 119-296 limits assumed): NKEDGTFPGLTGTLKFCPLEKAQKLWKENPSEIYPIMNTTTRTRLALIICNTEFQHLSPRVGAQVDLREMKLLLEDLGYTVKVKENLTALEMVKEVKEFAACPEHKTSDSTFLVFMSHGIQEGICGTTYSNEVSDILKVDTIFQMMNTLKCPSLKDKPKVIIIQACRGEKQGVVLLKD
T1 sequence (P29452 315-402 limits assumed): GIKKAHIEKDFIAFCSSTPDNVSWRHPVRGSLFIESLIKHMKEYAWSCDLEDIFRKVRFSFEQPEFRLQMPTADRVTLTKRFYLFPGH
Procedure: as §4
Caspase-1 activity in the adrenal was measured using a caspase assay kit (manufactured by BD-Pharmingen). Describing briefly, a homogenate of adrenal tissue was incubated with Ac-YVAD-MCA (acetyl-L-tyrosyl-L-valyl-L-alanyl-L-aspartic acid 4-methyl-coumaryl-7-amide), which is a fluorescent substrate for caspase-1, and the MCA leaving from the aforementioned substrate was measured using a fluorescence plate reader (excitation wavelength 380 nm, irradiation wavelength 420-460 nm).

[4] = system: glyoma cell line C6; conditions: cited from earlier work
[5] = system: IL-6; test: Plasma IL-6 level in stress-loaded wild type mice (ELISA); format: in vivo, mouse; conditions: stress-loaded WT mice; FIG. 5B
Procedure: as §1, §2
Using IL-18-deficient mice, the relationship between IL-6, which is another stress-related cytokine, and IL-18, was examined. Without stress, IL-6 was undetectable in WT and IL-18 KO, but after 3 hours of stress loading, the IL-6 level was 230 pg/ml in WT and 25 pg/ml in IL-18 KO (FIG. 5A). After liberation from the stress, plasma IL-6 was kept at about 80 pg/ml in WT, but decreased to 5 pg/ml in IL-18 KO (FIG. 5A). Treatment with YVAD-CHO, SOD and anti-IL-18 antibody 70% inhibited the stress-induced increase in plasma IL-6 level in WT (FIG. 5B).

[6] = system: phosphorylated (Thr180/Tyr182) P38 MAP kinase; test: Phosphorylated P38MAP kinase in the adrenal of restraint stress mice (Western blotting); format: in vivo, mouse; conditions: Western blotting, FIG. 3D
Procedure: as §4
Western blot analysis of IL-18 and phosphorylated P38MAP kinase in adrenal tissue was performed as described below. The adrenal tissue was homogenized in an immunoprecipitation (IP) buffer solution (50 mM Tris pH 7.4, 150 mM NaCl, 0.5% NP-40 and 0.5% sodium deoxycholate) containing a protease inhibitor mixture (manufactured by Roche Diagnostics) using a Polytron homogenizer. The homogenate obtained (100 μg protein) was pre-clarified using protein A/G agarose (Exalpha Biologicals, Inc.), incubated with the anti-mouse IL-18 monoclonal antibody or the anti-phosphorylated (Thr180/Tyr182) P38 MAP kinase antibody and protein A/G agarose (50 μl), and centrifuged (at 13000×g for 25 minutes, 4° C.). The precipitate was boiled, and the adrenal protein was recovered, electrophoresed in 10-20% SDS-polyacrylamide gradient gel, and electrically transferred to a Hybond ECL (manufactured by Amersham) nitrocellulose membrane. The aforementioned membrane was incubated with an antibody (IL-18, phosphorylated (Thr180/Tyr182) P38 MAP kinase, caspase-1 or caspase-11), and the reacted protein was detected using an ECL plus system (manufactured by Amersham biosciences). Procaspase-11 and activated P38 MAP kinase were quantified using a Science Lab 99 image analysis system (manufactured by Fujifilm).

[7] = system: IL-18 precursor; test: IL-18 (precursor) level in the adrenal of restraint stress mice; format: in vivo, mouse; conditions: given i.p. during restraint
Procedure: as §1, §3, §4
Western blot analysis of IL-18 and phosphorylated P38MAP kinase in adrenal tissue was performed as described below. […] Procaspase-11 and activated P38 MAP kinase were quantified using a Science Lab 99 image analysis system (manufactured by Fujifilm).

[8] = system: phosphorylated P38MAP kinase; test: Immunohistochemistry of phosphorylated P38MAP kinase in adrenal cortex of stress-loaded mice; format: in vivo, mouse; conditions: FIG. 3F
Procedure: The adrenal was fixed in formalin, embedded in paraffin, and cut into 4-μm sections. The aforementioned tissue sections were incubated with an antibody (P38 MAP kinase, caspase-11, caspase-1 (these three were diluted 200 fold) or IL-18 (diluted 400 fold)). Using a horseradish peroxidase-conjugated secondary antibody (manufactured by Santa Cruz) and diaminobenzidin (DBA), color development was performed. For control, sections without the primary antibody and sections derived from a mouse without stress were used.

[9] = system: IL-18; test: IL-18 in plasma and adrenal after administration of synthetic ACTH; format: in vivo, mouse; conditions: 250 μg injected to the left leg, after 6 hours, no restraint
Procedure: as §2, §3

[10] = system: caspase-1; test: Procaspase-1 in the adrenal after ACTH administration (Western blotting); format: in vivo, mouse; conditions: FIG. 2A lane 2
Procedure: as §3, §5

[11] = system: Primary culture human renal proximal tubular epithelial cells; test: IL-18 release from renal tubular epithelial cells with paraquat stimulation; format: cell-based
[12] = system: Abdominal macrophages; test: IL-18 release from macrophages with paraquat stimulation; format: cell-based, mouse; conditions: 100 nM paraquat 15 minutes, SOD 1-20 U/ml
Procedure: Abdominal macrophages isolated from mice by the method of Hamilton et al. (Hamilton T A, Weiel J E, Adams D O., J. Immunol. 1984 May; 132(5):2285-90) were cultured in Dulbecco's minimum essential medium at 1.0-2.0×10^5/dish. The medium was exchanged with the aforementioned medium containing 100 nM of paraquat, which is an active oxygen generator, and the cells were cultured for 15 minutes, after which the medium was exchanged with a paraquat-free medium, and the cells were further cultured for 3 hours, after which the medium was collected, and the concentration of IL-18 protein in the medium was measured.

[13] = system: Primary culture human skin keratinocytes; test: IL-18 release from keratinocytes with paraquat stimulation; format: cell-based
Procedure: Primary culture human skin keratinocytes (keratinocytes) were cultured in a basal medium for keratinocytes contained in petri dishes for cell culture 6 cm in diameter at 1.0-2.0×10^6/dish. This was cultured in the aforementioned medium containing 1 μM of paraquat, which is an active oxygen generator, for 15 minutes, after which the medium was exchanged with a paraquat-free medium, and the cells were further cultured for 1 hour, after which the medium was collected, and the concentration of IL-18 protein in the medium was measured.

[14] = system: Synovial membrane tissue; test: IL-18 release from synovial membrane tissue with paraquat stimulation; format: cell-based, human; conditions: synovial membrane tissue of articular rheumatism patient, 100 nM paraquat 15 minutes; SOD 1-20 U/ml
Procedure: Synovial membrane tissue collected from the articular synovial membrane at a lesion site of an articular rheumatism patient was subjected to tissue culture in an RPMI-1640 medium containing 10% fetal bovine serum by the method of Tanaka et al. (Tanaka M, Harigai M, Kawaguchi Y, Ohta S, Sugiura T, Takagi K, Ohsako-Higami S, Fukasawa C, Hara M, Kamatani N., J. Rheumatol. 2001 August; 28(8):1779-87). The medium was exchanged with the aforementioned medium containing 100 nM of paraquat, which is an active oxygen generator, and the cells were cultured for 15 minutes, after which the medium was exchanged with a paraquat-free medium, and the cells were further cultured for 1 hour, after which the medium was collected, and the concentration of IL-18 protein in the medium was measured.

[15] = system: Brain astrocytes; test: IL-18 release from astrocytes with paraquat stimulation; format: cell-based, mouse
Procedure: Brain astrocytes isolated from the mouse neonatal brain by the method of Yang et al. (Yang P, Hernandez M R. Brain Res Brain Res Protoc. 2003 October; 12(2):67-76) were prepared at 1.5-2.0×10^6/ml. This was cultured in Dulbecco's minimum essential medium containing 100 nM of paraquat, which is an active oxygen generator, for 1 hour, after which the medium was exchanged with a paraquat-free medium. The cells were further cultured for 3 hours, after which the medium was collected, and the concentration of IL-18 protein in the medium was measured.

[16] = system: Primary culture human skin keratinocytes; test: IL-18 release from keratinocytes with UV-B ray irradiation; format: cell-based; conditions: 100 mJ UV-B, SOD 1-20 U/ml or water-soluble vitamin E 100 nM-10 mM/ml
Procedure: Primary culture human skin keratinocytes (keratinocytes: purchased from CAMBREX Company) were cultured in a basal medium for keratinocytes contained in petri dishes for cell culture 6 cm in diameter at 1.0-2.0×10^6/dish. This was irradiated with 100 mJ of ultraviolet B rays (UV-B rays), after which the cells were cultured for 1 hour, after which the medium was collected, and the concentration of IL-18 protein in the medium was measured. Also, after the UV-B ray treatment, the cells were cultured in a medium containing SOD (1, 2.5, 5, 10, 20 U/ml), which is an active oxygen eliminator, or water-soluble vitamin E (100 nM, 1, 2.5, 5, 10 mM/ml), and the concentration of IL-18 protein in the medium was measured. In the keratinocytes, the activation and release of IL-18 by the active oxygen molecular species were observed. Furthermore, these were suppressed by SOD, which is an active oxygen eliminator, or by vitamin E, which neutralizes active oxygen, dose-dependently (FIGS. 7C and 7D).

[17] = system: Brain microglia; test: IL-18 release from microglia with paraquat stimulation; format: cell-based, mouse
Procedure: Brain microglia isolated from the mouse neonatal brain by the method of Hassan et al. (Hassan N F, Rifat S, Campbell D E, McCawley L J, Douglas S D. J. Leukoc Biol. 1991 July; 50(1):86-92) were cultured at 1.5-2.0×10^6/ml. This was cultured in Dulbecco's minimum essential medium containing 100 nM of paraquat, which is an active oxygen generator, for 1 hour, after which the medium was exchanged with a paraquat-free medium. After further cultivation for 3 hours, the medium was collected, and the concentration of IL-18 protein in the medium was measured.

Compound: c1ccc2c(c1)[I+]c1ccccc1-2 [DPI, Diphenyleneiodonium chloride]
stress-induced increase in plasma IL-18 level [1]: suppressed

Compound: C[S+]([O-])c1ccc(-c2nc(-c3ccncc3)c(-c3ccc(F)cc3)[nH]2)cc1 (centres unmarked) [SB203580]
stress-induced increase in procaspase-11 protein [2]: inhibited
stress-induced increase in caspase-1 activity in the adrenal [3]: lower than those in control mice
stress-induced increase in plasma IL-18 level [1]: lower than those in control mice
activation of caspase-1 subsequent to LPS [4]: suppressed
induction of caspase-11 mRNA by LPS [4]: suppressed

Compound: CC(=O)N[C@@H](Cc1ccc(O)cc1)C(=O)N[C@H](C(=O)N[C@@H](C)C(=O)N[C@H](C=O)CC(=O)O)C(C)C [YVAD-CHO, Ac-YVAD-CHO]
stress-induced increase in caspase-1 activity in the adrenal [3]: suppressed
inhibition of the stress-induced increase in plasma IL-6 level [5]: 70%
phosphorylation of P38MAP kinase in the adrenal [6]: Neither YVAD-CHO nor Z-FA-fmk influenced
stress-induced increase in plasma IL-18 level [1]: effectively inhibited
IL-18 precursor protein level in the adrenal [7]: did not inhibit
accumulation of phosphorylated P38MAP kinase in adrenal cortex [8]: did not influence

stress-induced increase in caspase-1 activity in the adrenal [3]: suppressed
Compound: CC(NC(=O)[C@H](Cc1ccccc1)NC(=O)OCc1ccccc1)C(=O)CF (some centres unmarked) [Z-FA-fmk]
phosphorylation of P38MAP kinase in the adrenal [6]: Neither YVAD-CHO nor Z-FA-fmk influenced
stress-induced increase in plasma IL-18 level [1]: suppressed
accumulation of phosphorylated P38MAP kinase in adrenal cortex [8]: did not influence

Compound: ACTH: Synthetic ACTH (1-24 amino acids) purchased from Peninsula Laboratories Inc. (SYSMEHFRWGKPVGKKRRPVKVYP; Corticotropin; UniProt P01189 138-161, looked up, fragment)
plasma IL-18 level after ACTH administration ([9]; FIG. 1D): rose, but its degree was lower than that with stress loading
IL-18 level in the adrenal after ACTH administration ([9]; FIG. 1E): rose to the same extent as in the case of stress loading
induction of caspase-1 in the adrenal [10]: induced

Compound: vitamin E
activation and release of IL-18 into the medium [11]: suppressed
activation and release of IL-18 into the medium [12]: suppressed
activation and release of IL-18 into the medium [13]: suppressed
activation and release of IL-18 into the medium [14]: suppressed
activation and release of IL-18 into the medium [15]: suppressed
activation and release of IL-18 into the medium [16]: suppressed
activation and release of IL-18 into the medium [17]: suppressed
